Assay results published in US8524911B2, “3-arylamino pyridine derivatives” (Merck Serono SA, priority 2004, dated 2013).

Legend:
[1] = biological target: human MEK1 (Homo sapiens, UniProt Q02750); experiment: MEK-1 Enzyme Assay (LANCE-HTRF); type: biochemical; settings: 100 nM MEK1, 15 μM ATP, 300 nM ERK2, two hours; read-out: MEK inhibition
Experimental: Assay 1: MEK-1 Enzyme Assay (LANCE-HTRF)
The activity of the compounds of the present invitation may be determined by the following procedure; Inhibition of human MEK1 kinase activity was monitored with a homogenous, fluorescence based assay. The assay uses time resolved fluorescence resonance energy transfer to probe for phosphorylation of ERK1 by MEK1. The assay is carried out in low volume 96 well microtiterplates. […] After two hours, 5 nM Europium-anti-PY20 (Perkin Elmer) and 50 nM Anti-GST-Allophycocyanin (CisBio) in buffer containing 50 mM EDTA and 0.05% BSA are added and the reaction incubated for one hour in the dark. Time-resolved fluorescence is measured using a LJL-Analyst (Molecular Devices) with an excitation wavelength of 340 nm and an emission wavelength of 665 nm. The final concentration of DMSO is 2%.

[2] = test system: Murine colon C26 cells; experiment: Tumor cell proliferation assay (ATP Lite), C26; type: cell-based; settings: Mus musculus, 96 h, 4 days
Experimental: (§1) Assay 2: Tumor Cell Proliferation Assays (ATP Lite)
(§2) Murine colon C26, human melanoma A375 and MeI5 or human pancreatic MiaPaCa-2 cells were plated in 96 well Corning white plates (1500 cells/well for C26, and 2000 cells/well for A375, and MiaPaCa-2) and cultured overnight at 37° C. in 5% CO2. Inhibitors were serially diluted in 100% DMSO and subsequently added to cells to reach a final concentration of 0.25% DMSO. The cells were incubated for 4 days in the presence of test compounds in cell growth media (DMEM with 10% fetal bovine serum, 2 mM glutamine for C26, and MiaPaCa-2, and RPMI with 10% fetal bovine serum, 2 mM glutamine for A375). Cell proliferation was quantitated using the ATP lite cell proliferation kit (Packard). Columns 4-6 show the concentration of compounds required to induce 50% cell death (IC50 in μM) of […]. With “+” meaning 3 μM<IC50≦10 μM and “++” IC50≦3 μM and “n.d.” means not determined. Few compounds were also tested on human melanoma cell MeI5.

[3] = test system: human melanoma A375 cells; experiment: Tumor cell proliferation assay (ATP Lite), A375; type: cell-based; settings: A-375, 96 h, 4 days
Experimental: as §1, §2

[4] = test system: human pancreatic MiaPaCa-2 cells; experiment: Tumor cell proliferation assay (ATP Lite), MiaPaCa-2; type: cell-based; settings: MIA PaCa-2, 96 h, 4 days
Experimental: as §1, §2

human MEK1, sequence (Q02750 whole entry): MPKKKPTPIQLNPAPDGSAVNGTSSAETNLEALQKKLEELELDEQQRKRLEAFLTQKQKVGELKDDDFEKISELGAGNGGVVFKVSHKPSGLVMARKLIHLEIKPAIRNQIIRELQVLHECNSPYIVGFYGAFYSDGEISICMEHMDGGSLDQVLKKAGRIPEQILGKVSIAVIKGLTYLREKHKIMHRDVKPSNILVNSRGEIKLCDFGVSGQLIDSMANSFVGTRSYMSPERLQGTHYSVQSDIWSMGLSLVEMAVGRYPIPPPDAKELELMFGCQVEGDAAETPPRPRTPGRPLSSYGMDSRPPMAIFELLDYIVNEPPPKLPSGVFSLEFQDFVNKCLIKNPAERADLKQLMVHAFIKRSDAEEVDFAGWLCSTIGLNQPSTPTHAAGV

IC50 [1]	IC50 [2]	IC50 [3]	IC50 [4]	Compound
< 1000 nM	3 to 10 µM	≤ 3 µM	3 to 10 µM	O=C(NNc1cc(C(F)(F)F)cc(C(F)(F)F)c1)c1ccncc1Nc1ccc(I)cc1F [Example 101]
< 1000 nM	≤ 3 µM	≤ 3 µM	≤ 3 µM	COCCN(C)C(=O)c1ccncc1Nc1ccc(I)cc1F [Example 24, 3-[(2-fluoro-4-iodophenyl)amino]-N-(2-methoxyethyl)-N-methyl-isonicotinamide]
< 1000 nM	≤ 3 µM	≤ 3 µM	≤ 3 µM	NC(=O)c1cc(Br)ncc1Nc1ccc(I)cc1F [Example 68, 2-Bromo-5-(2-fluoro-4-iodo-phenylamino)-isonicotinamide]
< 1000 nM	≤ 3 µM	≤ 3 µM	≤ 3 µM	O=C(NN1CCOCC1)c1ccncc1Nc1ccc(I)cc1F [Example 25, 3-[(2-fluoro-4-iodophenyl)amino]-N-morpholin-4-ylisonicotin-amide]
< 1000 nM	3 to 10 µM	≤ 3 µM	–	CC(C)CONC(=O)c1ccncc1Nc1ccc(I)cc1Cl [Example 78]
< 1000 nM	≤ 3 µM	≤ 3 µM	≤ 3 µM	C[C@H](O)CNC(=O)c1ccncc1Nc1ccc(I)cc1F [Example 41, 3-[(2-fluoro-4-iodophenyl)amino]-N-[(2S)-2-hydroxypropyl]-isonicotinamide]
< 1000 nM	3 to 10 µM	≤ 3 µM	3 to 10 µM	Cc1ccc(CC(=O)NC2CCN(C(=O)c3ccncc3Nc3ccc(I)cc3F)CC2)cc1 [Example 86, N-(1-{3-[(2-fluoro-4-iodophenyl)amino]isonicotinoyl}piperidin-4-yl)-2-(4-methylphenyl)acetamide]
< 1000 nM	≤ 3 µM	≤ 3 µM	≤ 3 µM	CC(O)CNC(=O)c1ccncc1Nc1ccc(I)cc1F (stereo not drawn) [Example 14, 3-[(2-fluoro-4-iodophenyl)amino]-N-(2-hydroxypropyl)-isonicotinamide]
1000 to 10000 nM	–	3 to 10 µM	–	C#Cc1ccc(Nc2cnccc2C(=O)NOC[C@H](O)CO)c(Cl)c1 [Example 54, 3-(2-Chloro-4-ethynyl-phenylamino)-N-(2,3-dihydroxy-propoxy)-isonicotinamide]
< 1000 nM	3 to 10 µM	≤ 3 µM	3 to 10 µM	O=C(O)c1ccc(CCNC(=O)c2ccncc2Nc2ccc(I)cc2F)cc1 [Example 102, 4-[2-({3-[(2-fluoro-4-iodophenyl)amino]isonicotinoyl}-amino)ethyl]benzoic acid]
< 1000 nM	≤ 3 µM	≤ 3 µM	≤ 3 µM	O=C(NCCCCO)c1ccncc1Nc1ccc(I)cc1F [Example 39, 3-[(2-fluoro-4-iodophenyl)amino]-N-(4-hydroxybutyl)-isonicotinamide]
< 1000 nM	≤ 3 µM	≤ 3 µM	≤ 3 µM	O=C(NOC[C@H](O)CO)c1ccncc1Nc1ccc(I)cc1F [Example 7, N-{[(2R)-2,3-dihydroxypropyl]oxy}-3-[(2-fluoro-4-iodophenyl)-amino]isonicotin-amide]
< 1000 nM	–	≤ 3 µM	3 to 10 µM	COCCNC(=O)c1cc(Br)ncc1Nc1ccc(I)cc1F [Example 87, 2-Bromo-5-(2-fluoro-4-iodo-phenylamino)-N-(2-methoxy-ethyl)-isonicotinamide]
< 1000 nM	3 to 10 µM	≤ 3 µM	3 to 10 µM	Cc1ccc(CCNC(=O)c2ccncc2Nc2ccc(I)cc2F)cc1 [Example 85, 3-[(2-fluoro-4-iodophenyl)amino]-N-[2-(4-methylphenyl)-ethyl]isonicotinamide]
< 1000 nM	3 to 10 µM	≤ 3 µM	≤ 3 µM	COC(=O)c1ccncc1Nc1ccc(I)cc1Cl [Example 10, Methyl 3-[(2-chloro-4-iodophenyl)amino]isonicotinate]
< 1000 nM	3 to 10 µM	≤ 3 µM	3 to 10 µM	O=C(NOC[C@H](O)CO)c1ccnc(Cl)c1Nc1ccc(I)cc1F [Example 43, 2-Chloro-N-[(2R)-2,3-dihydroxy-propoxy]-3-(2-fluoro-4-iodo-phenylamino)-isonicotinamide]
< 1000 nM	–	3 to 10 µM	–	O=C(NCc1cccc(I)c1)c1ccncc1Nc1ccc(I)cc1F [Example 94, 3-[(2-fluoro-4-iodophenyl)amino]-N-(3-iodobenzyl)isonicotin-amide]

IC50 [1]	IC50 [2]	IC50 [3]	IC50 [4]	Compound
< 1000 nM	–	–	–	O=C(NCc1cc(F)cc(C(F)(F)F)c1)c1ccncc1Nc1ccc(I)cc1F [Example 105, 3-[(2-fluoro-4-iodophenyl)amino]-N-[3-fluoro-5-(trifluoromethyl)-benzyl]isonicotinamide]
< 1000 nM	–	–	–	NC(=O)[C@H](CO)NC(=O)c1ccncc1Nc1ccc(I)cc1F [Example 112, N-(1-(S)-Carbamoyl-2-hydroxy-ethyl)-3-(2-fluoro-4-iodo-phenylamino)-isonicotinamide]
< 1000 nM	–	3 to 10 µM	–	O=C(NC1CCCCC1)c1ccncc1Nc1ccc(I)cc1F [Example 61, N-cyclohexyl-3-[(2-fluoro-4-iodophenyl)amino]isonicotinamide]
< 1000 nM	–	–	–	Cc1cc(I)ccc1Nc1cnccc1C(=O)O [Example 3, 3-[(4-Iodo-2-methylphenyl)amino]isonicotinic acid]
< 1000 nM	–	–	–	O=C(NC1(CO)CCCC1)c1ccncc1Nc1ccc(I)cc1F [Example 110, 3-(2-Fluoro-4-iodo-phenylamino)-N-(1-hydroxymethyl-cyclo-pentyl)-isonicotinamide]
< 1000 nM	–	–	–	O=C(O)c1ccncc1Nc1ccc(Cl)cc1Cl [Example 1, 3-[(2,4-Dichlorophenyl)amino]isonicotinic acid]
< 1000 nM	–	–	–	O=C(NCC(F)(F)F)c1ccncc1Nc1ccc(I)cc1F [Example 109, 3-(2-Fluoro-4-iodo-phenylamino)-N-(2,2,2-trifluoro-ethyl)-isonicotinamide]
< 1000 nM	–	≤ 3 µM	3 to 10 µM	CONC(=O)c1ccncc1Nc1ccc(I)cc1Cl [Example 80, N-methoxy-3-(2-chloro-4-iodo-phenylamino)-isonicotinamide]
< 1000 nM	3 to 10 µM	≤ 3 µM	–	CC(C)C(C)NC(=O)c1ccncc1Nc1ccc(I)cc1F (stereo not drawn) [Example 62, N-(1,2-dimethylpropyl)-3-[(2-fluoro-4-iodophenyl)amino]-isonicotinamide]
< 1000 nM	–	≤ 3 µM	–	CC1(C)OC[C@@H](CONC(=O)c2ccncc2Nc2ccc(I)cc2F)O1 [Example 63, N-{[(4S)-2,2-dimethyl-1,3-dioxolan-4-yl]methoxy}-3-[(2-fluoro-4-iodophenyl)amino]isonicotinamide]
< 1000 nM	3 to 10 µM	≤ 3 µM	–	CC1(C)OC[C@H](CONC(=O)c2cc(Br)ncc2Nc2ccc(I)cc2F)O1 [Example 69, 2-bromo-N-{[(4R)-2,2-dimethyl-1,3-dioxolan-4-yl]methoxy}-5-[(2-fluoro-4-iodophenyl)amino]isonicotinamide]
1000 to 10000 nM	–	–	–	CN(C)c1ccc(-c2cc(C(=O)O)c(Nc3ccc(I)cc3F)cn2)cc1 [Example 57, 2-[4-(dimethylamino)phenyl]-5-[(2-fluoro-4-iodophenyl)amino]-isonicotinic acid]
1000 to 10000 nM	–	–	–	O=c1[nH]nc(-c2ccncc2Nc2ccc(Br)cc2F)o1 [Example 126, 5-[3-(4-Bromo-2-fluoro-phenylamino)-pyridin-4-yl]-3H-[1,3,4]oxadiazol-2-one]
< 1000 nM	–	–	–	O=C(NCc1cccc(O)c1)c1ccncc1Nc1ccc(I)cc1F [Example 106, 3-[(2-fluoro-4-iodophenyl)amino]-N-(3-hydroxybenzyl)-isonicotinamide]
< 1000 nM	3 to 10 µM	≤ 3 µM	–	O=C(NOC1CCCCO1)c1ccncc1Nc1ccc(I)cc1F (stereo not drawn) [Example 84, 3-[(2-fluoro-4-iodophenyl)amino]-N-(tetrahydro-2H-pyran-2-yloxy)-isonicotin-amide]
< 1000 nM	–	≤ 3 µM	–	O=C(NO)c1ccncc1Nc1ccc(I)cc1F [Example 66, 3-[(2-fluoro-4-iodophenyl)amino]-N-hydroxyisonicotinamide]
< 1000 nM	–	–	–	Cc1cc(C(=O)O)c(Nc2ccc(I)cc2F)cn1 [Example 111, 5-[(2-fluoro-4-iodophenyl)amino]-2-methylisonicotinic acid]
